Laboratory results from publication PMC8518411, “Discovery of GPR183 Agonists Based on an Antagonist Scaffold” (Chemmedchem, 2021).
Entries after “also recorded” stand apart in the source; their conditions may differ. Where two headings read alike, the source gives them in different places.

Key:
[1] = molecular target: T1, GPR183 (Homo sapiens, UniProt P32249); experiment: cell-based
[2] = molecular target: T1, GPR183; assay type: cell-based; set-up: hemagglutinin signal peptide (upstream of the FLAG tag) (N); expressed in transfected cells; host or cells: CHO-K1 (ATCC CCL-61), transient lipofection, modified pcDNA3 vector; conditions: for agonist activity in calcium mobilization screen: 10 μM compound
[3] = molecular target: T1, GPR183; conditions: dose-response, BRET
[4] = molecular target: T1, GPR183; experiment: BRET cAMP (CAMYEL biosensor) assay, antagonist mode (antagonist added 10 min prior to agonist); assay type: cell-based; set-up: hemagglutinin signal peptide (upstream of the FLAG tag) (N); expressed in transfected cells; host or cells: CHO-K1 (ATCC CCL-61), transient lipofection, modified pcDNA3 vector
[5] = EC50 (potency), Gαi coupling, BRET, three experiments
[6] = calcium assay dose-response, mean of 3 experiments in duplicates, read-out: EC50 (potency)

T1 sequence (P32249 whole entry): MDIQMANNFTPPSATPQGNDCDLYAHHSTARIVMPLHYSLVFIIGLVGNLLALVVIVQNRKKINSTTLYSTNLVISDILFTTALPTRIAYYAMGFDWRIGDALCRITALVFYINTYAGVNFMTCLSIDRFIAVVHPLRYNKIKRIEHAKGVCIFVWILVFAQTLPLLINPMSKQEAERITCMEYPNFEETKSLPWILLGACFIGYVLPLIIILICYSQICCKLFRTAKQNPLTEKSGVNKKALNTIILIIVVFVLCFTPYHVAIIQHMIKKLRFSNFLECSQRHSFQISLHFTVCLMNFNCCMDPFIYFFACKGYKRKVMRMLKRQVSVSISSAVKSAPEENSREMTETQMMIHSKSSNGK

O=C(COc1cccc2ccccc12)N1CCN(C(=O)c2ccccc2)CC1 [Compound 15]
EC50 [1, 5]: 660 nM
EC50 [2, 6]: 209 nM

O=C(CCC1CCCC1)N1CCN(C(=O)c2cc(=O)c3ccccc3o2)CC1 [Compound 13]
EC50 [2, 6]: 165 nM

COc1cc(C(=O)N2CCN(C(=O)COc3cccc4ccccc34)CC2)ccc1C [Compound 92]
EC50 [1, 5]: 757 nM
agonist activity (Gαi coupling) [3]: partial agonist properties

Cc1nn(C)c(C)c1/C=C/C(=O)N1CCN(C(=O)C2COc3ccccc3O2)CC1 (centres unmarked) [Compound 9]
EC50 [2, 6]: 634 nM

O=C(COc1ccc(F)cc1Cl)N1CCN(C(=O)c2cccs2)CC1 [Compound 18]
agonist activity in calcium mobilization screen [2]: active
EC50 [2, 6]: 740 nM

COc1cc(C(=O)N2CCN(C(=O)COc3ccc(Cl)cc3C)CC2)ccc1C [Compound 16]
EC50 [1, 5]: 51 nM
EC50 ([1]; pEC50±SE, Gαi coupling, BRET): 50.1 nM
EC50 [2, 6]: 179 nM

Cc1cc(Cl)ccc1OCC(=O)N1CCN(C(=O)c2ccccc2)CC1 [Compound 91]
EC50 [1, 5]: 64 nM
EC50 ([1]; pEC50±SE, Gαi coupling, BRET): 63.1 nM
agonist activity (Gαi coupling) [3]: partial agonist properties; also recorded: active

O=C(COc1ccc(F)cc1Br)N1CCN(C(=O)C2COc3ccccc3O2)CC1 (centres unmarked) [Compound 17]
EC50 [2, 6]: 278 nM

O=C(COc1ccc2c(c1)CCC2)N1CCN(C(=O)c2cccs2)CC1 [Compound 69]
agonist activity in calcium mobilization screen [2]: inactive

O=C(COc1ccccc1)N1CCN(C(=O)c2ccccc2)CC1 [Compound 90]
antagonist properties (inhibition of G protein activity induced by 1) ([4]; 10 nM of agonist 1 after preincubation with compound): did not inhibit
agonist activity (Gαi coupling) [3]: inactive

O=C(/C=C/c1ccccc1Br)N1CCN(C(=O)Cc2ccc(F)cc2)CC1 [Compound 12]
EC50 [2, 6]: 107 nM

O=C(/C=C/c1cccs1)N1CCN(C(=O)c2cccc3ccccc23)CC1 [Compound 10]
EC50 [2, 6]: 86 nM

O=C(/C=C/c1ccccc1)N1CCN(C(=O)c2ccccc2)CC1 [Compound 88]
inhibition at 10 µM ([4]; 10 μM (highest concentration tested), 10 nM of agonist 1 after preincubation, read-out: inhibition of G protein activity induced by 1): 79%

C[C@H](CCCC(C)(C)O)[C@H]1CC[C@H]2[C@@H]3[C@H](O)C=C4C[C@@H](O)CC[C@]4(C)[C@H]3CC[C@]12C [Compound 1, 7α,25‐dihydroxycholesterol, reference compound]
EC50 [1]: 19 nM
EC50 [2]: 17 nM
